The values below come from patent US12226424B2, “Target protein degradation compounds, their anti-tumor use, their intermediates and use of intermediates” (ShanghaiTech University, priority 2018, dated 2025).

One assay deals with SR cells. In words: Half inhibitory concentration (IC50) on ALK-positive SR cell proliferation (CCK-8). The format is cell-based. The note with it: Homo sapiens; SR cells, 72 h drug treatment, CCK-8; read-out: IC50 (nM)/ SR cell line. A digest of the protocol: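 SR cells seeded at 10,000 cells/well in RPMI1640 and treated with PROTAD compounds at 10 concentrations (top 10 μM, 5-fold dilutions) for 72 h at 37° C, 5% CO2. Viability read by CCK-8 (2 h) at OD450; DMSO as negative control.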

Assay [1] addresses T1, ALK protein (Homo sapiens, UniProt Q9UM73). The assay is described as follows: Western-blot half degradation concentration (DC50) of ALK protein in SR cells. The format is cell-based. To be noted: 24 h drug treatment, read-out: DC50 (nM)/ SR cell line. The method, then:
ALK-positive SR cells (human large cell immunoblastic lymphoma) were purchased from the American Type Culture Collection (ATCC); H3122 cells (human non-small cell lung cancer) were from the Shanghai University of Science and Technology Lin Haifan's research group.
The cells used in this present disclosure were cultured in a 37° C. incubator containing 5% CO2.
DC50 (drug concentration corresponding to protein degradation to 50%) calculation: according to the gray value of the corresponding Western blotting band after drug treatment, fitting the relationship curve between drug concentration and gray value to calculate the drug concentration range corresponding to half of the gray value.
Target sequence in this assay (Q9UM73 with tags, fused parts or gaps): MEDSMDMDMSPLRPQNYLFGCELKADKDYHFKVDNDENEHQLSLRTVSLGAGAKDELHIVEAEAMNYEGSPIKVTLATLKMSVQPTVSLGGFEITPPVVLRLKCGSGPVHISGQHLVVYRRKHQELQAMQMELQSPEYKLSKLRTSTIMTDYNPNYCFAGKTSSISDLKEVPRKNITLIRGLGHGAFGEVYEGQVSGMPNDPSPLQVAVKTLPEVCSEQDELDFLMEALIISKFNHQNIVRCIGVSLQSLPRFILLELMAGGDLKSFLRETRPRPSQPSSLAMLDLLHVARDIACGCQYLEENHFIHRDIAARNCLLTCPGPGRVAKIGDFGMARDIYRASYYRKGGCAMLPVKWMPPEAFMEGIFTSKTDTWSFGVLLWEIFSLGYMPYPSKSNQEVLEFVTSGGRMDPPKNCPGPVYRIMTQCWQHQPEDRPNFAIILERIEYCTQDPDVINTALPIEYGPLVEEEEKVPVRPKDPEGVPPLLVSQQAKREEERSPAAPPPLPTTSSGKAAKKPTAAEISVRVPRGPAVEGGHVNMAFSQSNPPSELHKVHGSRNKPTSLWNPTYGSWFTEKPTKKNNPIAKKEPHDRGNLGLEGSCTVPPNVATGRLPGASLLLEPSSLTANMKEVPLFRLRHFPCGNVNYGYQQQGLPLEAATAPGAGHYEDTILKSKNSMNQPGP

Assay [2] concerns the target T1, ALK protein. The assay is described as follows: Western-blot half degradation concentration (DC50) of ALK protein in H3122 cells. The format is cell-based. To be noted: 24 h drug treatment, read-out: DC50 (nM)/ H3122 cell line.
Target sequence in this assay (Q9UM73 with tags, fused parts or gaps): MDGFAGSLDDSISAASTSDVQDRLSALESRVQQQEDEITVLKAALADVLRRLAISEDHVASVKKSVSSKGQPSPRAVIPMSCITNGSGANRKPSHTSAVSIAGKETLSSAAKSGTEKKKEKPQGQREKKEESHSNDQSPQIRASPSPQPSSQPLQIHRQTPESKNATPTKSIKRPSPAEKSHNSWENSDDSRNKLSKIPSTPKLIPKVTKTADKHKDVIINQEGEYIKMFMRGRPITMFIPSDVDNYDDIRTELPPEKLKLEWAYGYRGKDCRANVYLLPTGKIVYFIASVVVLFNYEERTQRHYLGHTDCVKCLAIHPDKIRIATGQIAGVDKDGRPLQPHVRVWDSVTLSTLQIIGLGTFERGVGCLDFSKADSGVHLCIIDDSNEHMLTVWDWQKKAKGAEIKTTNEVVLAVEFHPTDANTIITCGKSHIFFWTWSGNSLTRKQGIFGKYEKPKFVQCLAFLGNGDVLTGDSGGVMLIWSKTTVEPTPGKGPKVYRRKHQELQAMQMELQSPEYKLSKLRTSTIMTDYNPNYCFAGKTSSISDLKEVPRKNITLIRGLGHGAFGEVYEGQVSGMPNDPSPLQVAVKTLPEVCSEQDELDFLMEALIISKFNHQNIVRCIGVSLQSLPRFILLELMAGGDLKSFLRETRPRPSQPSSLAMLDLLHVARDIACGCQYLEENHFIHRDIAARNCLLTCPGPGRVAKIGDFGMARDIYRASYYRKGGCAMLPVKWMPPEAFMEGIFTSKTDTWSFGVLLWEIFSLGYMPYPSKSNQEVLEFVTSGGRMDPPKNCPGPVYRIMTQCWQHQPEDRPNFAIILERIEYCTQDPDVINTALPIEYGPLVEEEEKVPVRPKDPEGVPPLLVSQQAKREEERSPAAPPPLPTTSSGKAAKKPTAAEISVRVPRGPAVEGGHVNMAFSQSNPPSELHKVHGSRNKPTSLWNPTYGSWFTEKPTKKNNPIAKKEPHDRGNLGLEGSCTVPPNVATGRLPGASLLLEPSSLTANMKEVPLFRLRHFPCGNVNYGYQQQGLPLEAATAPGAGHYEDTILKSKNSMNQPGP
A further assay relates to MDA-MB-231 cells. In words: Half inhibitory concentration (IC50) on BET-expressing tumor cells, CCK-8, MDA-MB-231. In kind it is cell-based. The note with it: Homo sapiens, 48/72 h, read-out: IC50 (nM)/MDA-MB-231 cell line. The procedure: (§1) BET-expressing cells MV-4-11 cells (human B granulocytic leukemia cells), MDA-MB-231 cells (human breast cancer cells), MDA-MB-468 cells (human breast cancer cells), MDA-MB-453 Cells (human breast cancer cells), MM1S cells (myeloma (immunoglobulin A lambda), B lymphoblasts) and SR cells (human large cell immunoblast lymphoma) were purchased from the American Type Culture Collection (ATCC).
(§2) The cells used in this present disclosure were cultured in a 37° C. incubator containing 5% CO2. The complete cell culture medium was RPMI 1640/IMDM/DMEM medium with 10% fetal bovine serum, and the final concentrations of penicillin and streptomycin were 100 U/mL, respectively. All cells were tested negative for mycoplasma with mycoplasma detection kit before the experiment.
(§3) Determination of the Half Inhibitory Concentration (IC50) of PROTAD Compounds on Tumor Cells
(§4) MV-411 cells, MM1S cells and SR cells were seeded in 100 μL IMDM/RPMI1640/DMEM complete medium at a density of 15000/10000 cells/well; MDA-MB-231 cells, MDA-MB-468 cells, and MDA-MB453 cells were seeded in 100 μL IMDM/RPMI1640/DMEM complete medium at a density of 3000/5000 cells/well, respectively. 100 μL of the inoculated cells were treated with 0.5 μL diluted PROTAD compounds of the present disclosure to be tested at 10 successively decreasing concentrations (starting at the highest concentration of 10 μM; 5-fold serial dilutions). After the cells were treated with the tested drugs 48/72 h, the cell viability was determined according to the CCK-8 reagent manual. The negative control was DMSO, and the positive control was a commercial inhibitor. After CCK-8 treatment for 2 h, the value of O.D.450 was measured using a microplate reader.

In another assay the test system is MDA-MB-468 cells. The assay is described as follows: Half inhibitory concentration (IC50) on BET-expressing tumor cells, CCK-8, MDA-MB-468. In kind it is cell-based. The note with it: Homo sapiens, 48/72 h, read-out: IC50 (nM)/MDA-MB-468 cell line. The procedure:
as §1, §2, §3, §4

Another assay concerns MDA-MB-453 cells. The assay is described as follows: Half inhibitory concentration (IC50) on BET-expressing tumor cells, CCK-8, MDA-MB-453. The format is cell-based, human. The note with it: 48/72 h, read-out: IC50 (nM)/MDA-MB-453 cell line. The method, then:
as §1, §2, §3, §4

The subject of the next assay is MM1S cells. The assay is described as follows: Half inhibitory concentration (IC50) on BET-expressing tumor cells, CCK-8, MM1S. The format is cell-based. The note with it: Homo sapiens, MM1.S, 48/72 h, read-out: IC50 (nM)/MM1S cell line. The method, then: as §1, §2, §3, §4
The next assay concerns MV-4-11 cells. The assay is described as follows: Half inhibitory concentration (IC50) on BET-expressing tumor cells, CCK-8, MV-4-11. The note with it: Homo sapiens, MV4-11, read-out: IC50 (nM)/MV-4-11 cell line, MV-4-11 cells, 48/72 h, CCK-8.
The mark [3] stands for this setting: Homo sapiens, MDA-MB-453, MDA-MB-453 cells.

Structures are written as SMILES. Where two headings read alike, the source gives them in different places.

As to `COc1cc(N2CCC(N3CCN(C(=O)CCCCSc4cccc5c4C(=O)N(C4CCC(=O)NC4=O)C5=O)CC3)CC2)ccc1Nc1ncc(Cl)c(Nc2ccccc2P(C)(C)=O)n1` (stereo not shown) [SIAIS164066, 4-((5-(4-(1-(4-((5-chloro-4-((2-(dimethylphosphoryl)phenyl)amino)pyrimidin-2-yl)amino)-3-methoxyphenyl)piperidin-4-yl)piperazin-1-yl)-5-oxopentyl)thio)-2-(2,6-dioxopiperidin-3-yl)isoindoline-1,3-dione], in the assay on SR cells, the IC50 stood at 4.2 ± 2.9 nM. The DC50 at ALK protein [1] was determined as 5.6 nM; on ALK protein [2], 11 nM.
On the same counts, the results for `COc1cc(N2CCC(N3CCN(C(=O)CCCCCCSc4cccc5c4C(=O)N(C4CCC(=O)NC4=O)C5=O)CC3)CC2)ccc1Nc1ncc(Cl)c(Nc2ccccc2P(C)(C)=O)n1` (stereo not shown) [SIAIS164067, 4-((7-(4-(1-(4-((5-chloro-4-((2-(dimethylphosphoryl)phenyl)amino)pyrimidin-2-yl)amino)-3-methoxyphenyl)piperidin-4-yl)piperazin-1-yl)-7-oxoheptyl)thio)-2-(2,6-dioxopiperidin-3-yl)isoindoline-1,3-dione] are 5.7 ± 3.9 nM, 4.1 nM and 11 nM.
For `COc1cc(N2CCC(NC(=O)CCCCCSc3cccc4c3C(=O)N(C3CCC(=O)NC3=O)C4=O)CC2)ccc1Nc1ncc(Cl)c(Nc2ccccc2P(C)(C)=O)n1` (stereo not shown) [SIAIS164141, N-(1-(4-((5-chloro-4-((2-(dimethylphosphoryl)phenyl)amino)pyrimidin-2-yl)amino)-3-methoxyphenyl)piperidin-4-yl)-6-((2-(2,6-dioxopiperidin-3-yl)-1,3-dioxoisoindolin-4-yl)thio)hexanamide], in that order: 3.2 ± 2.4 nM, 1 to 50 nM and 50 nM.
On to `Cc1sc2c(c1C)C(c1ccc(Cl)cc1)=N[C@@H](CC(=O)NCCCSc1cccc3c1C(=O)N(C1CCC(=O)NC1=O)C3=O)c1nnc(C)n1-2` (stereo partly drawn) [SIAIS171013, 2-((S)-4-(4-chlorophenyl)-2,3,9-trimethyl-6H-thieno[3,2-f][1,2,4]triazolo[4,3-a][1,4]diazepin-6-yl)-N-(3-((2-(2,6-dioxopiperidin-3-yl)-1,3-dioxoisoindolin-4-yl)thio)propyl)acetamide], for which the IC50 in the assay with MDA-MB-231 cells is above 2820 nM; in the assay with MDA-MB-468 cells, above 300 nM; in the assay with MDA-MB-453 cells (setting [3]), 1090 nM; in the assay with MM1S cells it was 22.6 nM; in the assay on MV-4-11 cells, 8.6 ± 8.7 nM.
For `Cc1sc2c(c1C)C(c1ccc(Cl)cc1)=N[C@@H](CC(=O)NCCSc1cccc3c1C(=O)N(C1CCC(=O)NC1=O)C3=O)c1nnc(C)n1-2` (stereo partly drawn) [SIAIS171036, 2-((S)-4-(4-chlorophenyl)-2,3,9-trimethyl-6H-thieno[3,2-f][1,2,4]triazolo[4,3-a][1,4]diazepin-6-yl)-N-(2-((2-(2,6-dioxopiperidin-3-yl)-1,3-dioxoisoindolin-4-yl)thio)ethyl)acetamide], the IC50 in the assay with MDA-MB-231 cells amounted to 242 ± 65 nM; in the assay on MDA-MB-468 cells, 100 ± 21 nM; in the assay on MDA-MB-453 cells (setting [3]), 163 nM; in the assay on MDA-MB-453 cells (MDA-MB-453 cells), 214 nM; in the assay on MM1S cells, 8.6 nM; in the assay on MV-4-11 cells it was 4.5 ± 3.2 nM.
Take `Cc1sc2c(c1C)C(c1ccc(Cl)cc1)=N[C@@H](CC(=O)NCCCCCCSc1cccc3c1C(=O)N(C1CCC(=O)NC1=O)C3=O)c1nnc(C)n1-2` (stereo partly drawn) [SIAIS171039, 2-((S)-4-(4-chlorophenyl)-2,3,9-trimethyl-6H-thieno[3,2-f][1,2,4]triazolo[4,3-a][1,4]diazepin-6-yl)-N-(6-((2-(2,6-dioxopiperidin-3-yl)-1,3-dioxoisoindolin-4-yl)thio)hexyl)acetamide]: the IC50 in the assay with MDA-MB-231 cells was 98 ± 82 nM; in the assay on MDA-MB-468 cells it was 92 ± 43 nM; with MDA-MB-453 cells (setting [3]), 167 nM; in the assay with MDA-MB-453 cells (MDA-MB-453 cells), 162 nM; in the assay on MM1S cells, 0.82 nM; with MV-4-11 cells it was 2.7 ± 2.5 nM.
As to `Cc1sc2c(c1C)C(c1ccc(Cl)cc1)=N[C@@H](CC(=O)NCCCCCCCSc1cccc3c1C(=O)N(C1CCC(=O)NC1=O)C3=O)c1nnc(C)n1-2` (stereo partly drawn) [SIAIS171040, 2-((S)-4-(4-chlorophenyl)-2,3,9-trimethyl-6H-thieno[3,2-f][1,2,4]triazolo[4,3-a][1,4]diazepin-6-yl)-N-(7-((2-(2,6-dioxopiperidin-3-yl)-1,3-dioxoisoindolin-4-yl)thio)heptyl)acetamide], the IC50 in the assay on MDA-MB-231 cells was found to be 69 ± 38 nM; in the assay with MDA-MB-468 cells, 46 ± 12 nM; in the assay on MDA-MB-453 cells (setting [3]), 85 nM; in the assay with MDA-MB-453 cells (MDA-MB-453 cells), 75.7 nM; with MM1S cells, 2.78 nM; with MV-4-11 cells it was 2.2 ± 2 nM.
Take `Cc1sc2c(c1C)C(c1ccc(Cl)cc1)=N[C@@H](CC(=O)NCCCCCCCCSc1cccc3c1C(=O)N(C1CCC(=O)NC1=O)C3=O)c1nnc(C)n1-2` (stereo partly drawn) [SIAIS171049, 2-((S)-4-(4-chlorophenyl)-2,3,9-trimethyl-6H-thieno[3,2-f][1,2,4]triazolo[4,3-a][1,4]diazepin-6-yl)-N-(8-((2-(2,6-dioxopiperidin-3-yl)-1,3-dioxoisoindolin-4-yl)thio)octyl)acetamide]: the IC50 was 645 ± 249 nM in the assay with MDA-MB-231 cells; 1730 ± 1650 nM in the assay on MDA-MB-468 cells; 166 nM in the assay with MDA-MB-453 cells (setting [3]); 237 nM in the assay on MDA-MB-453 cells (MDA-MB-453 cells); 3.06 nM with MM1S cells; 7.2 ± 9.2 nM in the assay with MV-4-11 cells.
Consider `Cc1sc2c(c1C)C(c1ccc(Cl)cc1)=N[C@@H](CC(=O)NCCSc1cccc3c1CN(C1CCC(=O)NC1=O)C3=O)c1nnc(C)n1-2` (stereo partly drawn) [SIAIS171138, 2-((S)-4-(4-chlorophenyl)-2,3,9-trimethyl-6H-thieno[3,2-f][1,2,4]triazolo[4,3-a][1,4]diazepin-6-yl)-N-(2-((2-(2,6-dioxopiperidin-3-yl)-1-oxoisoindolin-4-yl)thio)ethyl)acetamide], for which the IC50 was above 10000 nM in the assay with MDA-MB-231 cells; above 1740 nM with MDA-MB-468 cells; 2630 nM with MDA-MB-453 cells (setting [3]); 2800 nM in the assay with MDA-MB-453 cells (MDA-MB-453 cells); 3.1 nM with MM1S cells; 8.6 ± 9.1 nM in the assay with MV-4-11 cells.
For `Cc1sc2c(c1C)C(c1ccc(Cl)cc1)=N[C@@H](CC(=O)NCCCSc1cccc3c1CN(C1CCC(=O)NC1=O)C3=O)c1nnc(C)n1-2` (stereo partly drawn) [SIAIS171139, 2-((S)-4-(4-chlorophenyl)-2,3,9-trimethyl-6H-thieno[3,2-f][1,2,4]triazolo[4,3-a][1,4]diazepin-6-yl)-N-(3-((2-(2,6-dioxopiperidin-3-yl)-1-oxoisoindolin-4-yl)thio)propyl)acetamide], the IC50 is above 10000 nM in the assay with MDA-MB-231 cells; above 10000 nM with MDA-MB-468 cells; 452 nM in the assay with MDA-MB-453 cells (setting [3]); 2.03 nM in the assay on MM1S cells; 1.1 ± 0.6 nM in the assay on MV-4-11 cells.
In the case of `COc1cc(N2CCN(C(=O)CCCCCSc3cccc4c3C(=O)N(C3CCC(=O)NC3=O)C4=O)CC2)ccc1Nc1ncc(Cl)c(Nc2ccccc2P(C)(C)=O)n1` (stereo not shown) [SIAIS1197121, 4-((6-(4-(4-((5-chloro-4-((2-(dimethylphosphoryl)phenyl)amino)pyrimidin-2-yl)amino)-3-methoxyphenyl)piperazin-1-yl)-6-oxohexyl)thio)-2-(2,6-dioxopiperidin-3-yl)isoindoline-1,3-dione], in the assay with SR cells, the IC50 was determined as 7.4 ± 4.8 nM. Further, the DC50 is 50 to 500 nM at ALK protein [1] and 500 nM on ALK protein [2].
